Test system: 168753-222-R-J1-PDC complex spheroid viability
Experiment: Anticancer human tumor 168753-222-R-J1-PDC patient-derived bladder carcinoma cell line growth inhibition [CLK]
Conditions: second compound 3.16 µM; first compound 0.0316 µM; hits give low values
Outline: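 Patient-derived tumor cells grown as complex spheroids with HUVEC endothelial cells and mesenchymal stem cells, treated with drug combinations. Concentrations descend in half-log steps from near clinical Cmax, or from 10 microM if Cmax unknown.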
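Also: luminescence signal used as surrogate for viable cell amount; viability measured after seven days of drug exposure; 100% = DMSO vehicle control wells.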

| Compound | viability, T/C |
| --- | --- |
| Cn1ncnc1[C@H]1c2n[nH]c(=O)c3cc(F)cc(c23)N[C@@H]1c1ccc(F)cc1 + CNC(=O)c1ccc(Nc2nc(OC3CCCC3)c3c(-c4ccc5nc(C)oc5c4)c[nH]c3n2)c(OC)c1 | 19.8% |
| Nc1ccn(C2OC(CO)C(O)C2(F)F)c(=O)n1 (stereo unspecified) + CNC(=O)c1ccc(Nc2nc(OC3CCCC3)c3c(-c4ccc5nc(C)oc5c4)c[nH]c3n2)c(OC)c1 | 21% |
| O=C(c1cc(Cc2n[nH]c(=O)c3ccccc23)ccc1F)N1CCN(C(=O)C2CC2)CC1 + CNC(=O)c1ccc(Nc2nc(OC3CCCC3)c3c(-c4ccc5nc(C)oc5c4)c[nH]c3n2)c(OC)c1 | 24.1% |
| O=c1[nH]cc(F)c(=O)[nH]1 + CNC(=O)c1ccc(Nc2nc(OC3CCCC3)c3c(-c4ccc5nc(C)oc5c4)c[nH]c3n2)c(OC)c1 | 20.3% |

Same assay, conditions: second compound 3.16 µM; first compound 0.1 µM; hits give low values

| Compound | viability, T/C |
| --- | --- |
| CCc1c2c(nc3ccc(O)cc13)-c1cc3c(c(=O)n1C2)COC(=O)[C@]3(O)CC + CNC(=O)c1ccc(Nc2nc(OC3CCCC3)c3c(-c4ccc5nc(C)oc5c4)c[nH]c3n2)c(OC)c1 | 12.1% |
| Cn1ncnc1[C@H]1c2n[nH]c(=O)c3cc(F)cc(c23)N[C@@H]1c1ccc(F)cc1 + CNC(=O)c1ccc(Nc2nc(OC3CCCC3)c3c(-c4ccc5nc(C)oc5c4)c[nH]c3n2)c(OC)c1 | 21.5% |
| Nc1ccn(C2OC(CO)C(O)C2(F)F)c(=O)n1 (stereo unspecified) + CNC(=O)c1ccc(Nc2nc(OC3CCCC3)c3c(-c4ccc5nc(C)oc5c4)c[nH]c3n2)c(OC)c1 | 18.4% |
| O=C(c1cc(Cc2n[nH]c(=O)c3ccccc23)ccc1F)N1CCN(C(=O)C2CC2)CC1 + CNC(=O)c1ccc(Nc2nc(OC3CCCC3)c3c(-c4ccc5nc(C)oc5c4)c[nH]c3n2)c(OC)c1 | 26.2% |
| O=c1[nH]cc(F)c(=O)[nH]1 + CNC(=O)c1ccc(Nc2nc(OC3CCCC3)c3c(-c4ccc5nc(C)oc5c4)c[nH]c3n2)c(OC)c1 | 18.1% |

Same assay, conditions: second compound 3.16 µM; first compound 0.316 µM; hits give low values

| Compound | viability, T/C |
| --- | --- |
| CCc1c2c(nc3ccc(O)cc13)-c1cc3c(c(=O)n1C2)COC(=O)[C@]3(O)CC + CNC(=O)c1ccc(Nc2nc(OC3CCCC3)c3c(-c4ccc5nc(C)oc5c4)c[nH]c3n2)c(OC)c1 | 13.3% |
| Nc1ccn(C2OC(CO)C(O)C2(F)F)c(=O)n1 (stereo unspecified) + CNC(=O)c1ccc(Nc2nc(OC3CCCC3)c3c(-c4ccc5nc(C)oc5c4)c[nH]c3n2)c(OC)c1 | 18% |
| O=C(c1cc(Cc2n[nH]c(=O)c3ccccc23)ccc1F)N1CCN(C(=O)C2CC2)CC1 + CNC(=O)c1ccc(Nc2nc(OC3CCCC3)c3c(-c4ccc5nc(C)oc5c4)c[nH]c3n2)c(OC)c1 | 22.7% |
| O=c1[nH]cc(F)c(=O)[nH]1 + CNC(=O)c1ccc(Nc2nc(OC3CCCC3)c3c(-c4ccc5nc(C)oc5c4)c[nH]c3n2)c(OC)c1 | 19.9% |

Same assay, conditions: second compound 3.16 µM; first compound 1 µM; hits give low values

| Compound | viability, T/C |
| --- | --- |
| CCc1c2c(nc3ccc(O)cc13)-c1cc3c(c(=O)n1C2)COC(=O)[C@]3(O)CC + CNC(=O)c1ccc(Nc2nc(OC3CCCC3)c3c(-c4ccc5nc(C)oc5c4)c[nH]c3n2)c(OC)c1 | 10.3% |
| Nc1ccn(C2OC(CO)C(O)C2(F)F)c(=O)n1 (stereo unspecified) + CNC(=O)c1ccc(Nc2nc(OC3CCCC3)c3c(-c4ccc5nc(C)oc5c4)c[nH]c3n2)c(OC)c1 | 16.8% |
| O=C(c1cc(Cc2n[nH]c(=O)c3ccccc23)ccc1F)N1CCN(C(=O)C2CC2)CC1 + CNC(=O)c1ccc(Nc2nc(OC3CCCC3)c3c(-c4ccc5nc(C)oc5c4)c[nH]c3n2)c(OC)c1 | 17.8% |
| O=c1[nH]cc(F)c(=O)[nH]1 + CNC(=O)c1ccc(Nc2nc(OC3CCCC3)c3c(-c4ccc5nc(C)oc5c4)c[nH]c3n2)c(OC)c1 | 15.6% |

Same assay, conditions: second compound 3.16 µM; first compound 3.16 µM; hits give low values

| Compound | viability, T/C |
| --- | --- |
| Nc1ccn(C2OC(CO)C(O)C2(F)F)c(=O)n1 (stereo unspecified) + CNC(=O)c1ccc(Nc2nc(OC3CCCC3)c3c(-c4ccc5nc(C)oc5c4)c[nH]c3n2)c(OC)c1 | 16.4% |
| O=C(c1cc(Cc2n[nH]c(=O)c3ccccc23)ccc1F)N1CCN(C(=O)C2CC2)CC1 + CNC(=O)c1ccc(Nc2nc(OC3CCCC3)c3c(-c4ccc5nc(C)oc5c4)c[nH]c3n2)c(OC)c1 | 22.3% |
| O=c1[nH]cc(F)c(=O)[nH]1 + CNC(=O)c1ccc(Nc2nc(OC3CCCC3)c3c(-c4ccc5nc(C)oc5c4)c[nH]c3n2)c(OC)c1 | 18.4% |

Same assay, conditions: second compound 3.16 µM; first compound 10 µM; hits give low values

| Compound | viability, T/C |
| --- | --- |
| Nc1ccn(C2OC(CO)C(O)C2(F)F)c(=O)n1 (stereo unspecified) + CNC(=O)c1ccc(Nc2nc(OC3CCCC3)c3c(-c4ccc5nc(C)oc5c4)c[nH]c3n2)c(OC)c1 | 15.5% |
| O=C(c1cc(Cc2n[nH]c(=O)c3ccccc23)ccc1F)N1CCN(C(=O)C2CC2)CC1 + CNC(=O)c1ccc(Nc2nc(OC3CCCC3)c3c(-c4ccc5nc(C)oc5c4)c[nH]c3n2)c(OC)c1 | 25.5% |
| O=c1[nH]cc(F)c(=O)[nH]1 + CNC(=O)c1ccc(Nc2nc(OC3CCCC3)c3c(-c4ccc5nc(C)oc5c4)c[nH]c3n2)c(OC)c1 | 24.6% |

Same assay, conditions: second compound 10 µM; first compound 0.000316 µM; hits give low values

| Compound | viability, T/C |
| --- | --- |
| Cn1ncnc1[C@H]1c2n[nH]c(=O)c3cc(F)cc(c23)N[C@@H]1c1ccc(F)cc1 + CNC(=O)c1ccc(Nc2nc(OC3CCCC3)c3c(-c4ccc5nc(C)oc5c4)c[nH]c3n2)c(OC)c1 | 15.8% |

Same assay, conditions: second compound 10 µM; first compound 0.001 µM; hits give low values

| Compound | viability, T/C |
| --- | --- |
| Cn1ncnc1[C@H]1c2n[nH]c(=O)c3cc(F)cc(c23)N[C@@H]1c1ccc(F)cc1 + CNC(=O)c1ccc(Nc2nc(OC3CCCC3)c3c(-c4ccc5nc(C)oc5c4)c[nH]c3n2)c(OC)c1 | 17.3% |

Same assay, conditions: second compound 10 µM; first compound 0.00316 µM; hits give low values

| Compound | viability, T/C |
| --- | --- |
| CCc1c2c(nc3ccc(O)cc13)-c1cc3c(c(=O)n1C2)COC(=O)[C@]3(O)CC + CNC(=O)c1ccc(Nc2nc(OC3CCCC3)c3c(-c4ccc5nc(C)oc5c4)c[nH]c3n2)c(OC)c1 | 16.9% |

Source: PubChem BioAssay AID2060626 (Molecular Pharmacology Branch, DTP, NCI, 2025)
